Several values for one entry are separate records, joined by “and”; a condition that tells them apart may be missing. Equal values may be shown once. Read-outs that look alike come from different tables or passages of the source.
Tests used:
[1] = tested on: tra box-GUS reporter
Method: Plasmids for transfection were isolated and purified using Megaprep plasmid DNA isolation kit (Qiagen). Carrot protoplasts for transfections were prepared from carrot cell suspension culture and transfected with purified DNA as described (Ulmasov et al., Plant Cell 7:1611–1623, 1995). Briefly, 10 μg of the reporter plasmid and 5 μg of the effector plasmid were incubated with 10^6 protoplasts for five minutes at the room temperature in the presence of polyethylene glycol-calcium solution. After diluting approximately 10-fold with the culture medium, the protoplasts were incubated in the dark for 36 hours either in the presence or absence of the inducer 3-oxohexanoyl-homoserine lactone (OHHL, racemic mixture of the L- and D-isomers, purchased from Sigma Chemical Co., St Louis, Mo.). After incubation, protoplasts were collected by low-speed centrifugation, lysed and the level of GUS activity was measured using fluorometric GUS assay (Jefferson et al., EMBO J. 6:3901–3907, 1987).
Ten μg of the reporter plasmid (pMON53031), and indicated amount of the 35S effector plasmid per reaction was used for transfection in triplicate. […] The “− inducer” and “+ inducer” columns are averages of the GUS activities.
These constructs were tested for background GUS activity and TraR responsiveness in carrot protoplasts.

[2] = tested on: VP16-TraR; experiment: Transient GUS reporter assay in carrot protoplasts with VP16-TraR effector and tra box reporter; assay type: cell-based, Agrobacterium tumefaciens; parameters: 4, 5, 6 (replicate GUS activities, +inducer): unit not given here
[3] = tested on: VP16-TraR; experiment: as above; assay type: cell-based, Agrobacterium tumefaciens; settings: Table 8: TraA8(4X) +TraR
Source text: Carrot protoplasts were transfected with the TraA8 (4×)-GUS reporter construct with the 35S-VP16-TraR activator gene and tested for GUS induction by application of wild type AHL and the various AHL analogs described in Example 8.

[4] = Table 6 lane 15: TraA7(3X), cl.15 + CAT, 12.5 μM C8-AHL
[5] = Table 6 lane 17: TraA8(3X), cl.4 + CAT, 12.5 μM C8-AHL
[6] = Table 6 lane 19: TraA9(3X), cl.8 + CAT, 12.5 μM C8-AHL
[7] = Table 6 lane 21: TraA10(3X), cl.17 + CAT, 12.5 μM C8-AHL
[8] = Table 6 lane 23: TraA-1(3X), cl.14 + CAT, 12.5 μM C8-AHL
[9] = Table 6 lane 25: min35S-46-GUS, 12.5 μM C8-AHL
[10] = Table 7 lane 1: S2-46GUS, 12.5 μM C8-AHL
[11] = Table 7 lane 2: TraA8(4X), cl.16 + CAT, 12.5 μM C8-AHL
[12] = Table 7 lane 4: TraA8(3X), cl.4(60 μg) + CAT, 12.5 μM C8-AHL
[13] = Table 7 lane 6: TraA8(3X), cl.4(60 μg) +TraM, 12.5 μM C8-AHL
[14] = Table 7 lane 7: TraA8(3X), cl.4(60 μg) +TraS, 12.5 μM C8-AHL
[15] = Table 8 lane 2: TraA8(4X) +CAT, 25 μM C8-HSL
[16] = Table 6 lane 20: TraA9(3X), cl.8 +HA-VP16-TraR, 12.5 μM C8-AHL

With `CCCCCC(=O)CC(=O)N[C@H]1CCOC1=O` [C8-HSL, 3-oxooctanoyl-L-homoserine lactone] the “+inducer (average GUS activity)” value ([1]; Table 6 lane 13: TraA6(3X), cl.21 + CAT, 12.5 μM C8-AHL) was 3.9, the “4, 5, 6 (replicate GUS activities, +inducer)” value [1, 4] was 241.3 and 197.1 and 268.5 and the “+inducer (average GUS activity)” value [1, 4] was 235.6. For the same compound, the “4, 5, 6 (replicate GUS activities, +inducer)” value [1, 5] was 121.2 and 148.8 and 115.9, the “+inducer (average GUS activity)” value [1, 5] was 128.7 and the “4, 5, 6 (replicate GUS activities, +inducer)” value [1, 6] was 97.4 and 96.7 and 89.6. The “+inducer (average GUS activity)” value [1, 6] was 94.6, the “4, 5, 6 (replicate GUS activities, +inducer)” value [1, 7] was 47.1 and 44.2 and 44.1 and the “+inducer (average GUS activity)” value [1, 7] was 45.1. For the same compound, the “4, 5, 6 (replicate GUS activities, +inducer)” value [1, 8] was 19.7 and 23.6 and 17.0, the “+inducer (average GUS activity)” value [1, 8] was 20.1 and the “4, 5, 6 (replicate GUS activities, +inducer)” value [1, 9] was 39.6 and 32.1 and 44.5. For the same compound, the “+inducer (average GUS activity)” value [1, 9] was 38.7, the “4, 5, 6 (replicate GUS activities, +inducer)” value [1, 10] was 27.2 and 22.7 and 17.4 and the “+inducer (average GUS activity)” value [1, 10] was 22.4. The “4, 5, 6 (replicate GUS activities, +inducer)” value [1, 11] was 20.3 and 25.1 and 18.7, the “+inducer (average GUS activity)” value [1, 11] was 21.3 and the “4, 5, 6 (replicate GUS activities, +inducer)” value [1, 12] was 76.6 and 75.1 and 58.1. For the same compound, the “+inducer (average GUS activity)” value [1, 12] was 70.0, the “4, 5, 6 (replicate GUS activities, +inducer)” value [1, 13] was 105.0 and 102.1 and 86.8 and the “+inducer (average GUS activity)” value [1, 13] was 98.0. The “4, 5, 6 (replicate GUS activities, +inducer)” value [1, 14] was 143.6 and 128.8 and 134.8, the “+inducer (average GUS activity)” value [1, 14] was 135.7 and the “4, 5, 6 (replicate GUS activities, +inducer)” value [1, 15] was 1101.9 and 791.0 and 1071.3. The “+inducer (average GUS activity)” value [1, 15] was 988.1, the “4, 5, 6 (replicate GUS activities, +inducer)” value ([2]; Table 5 lane 2: tra box (6X), cl.7 +HA-VP16-TraR, 12.5 μM C8-AHL) was 933.8 and 1033.2 and 995.1 and the “4, 5, 6 (replicate GUS activities, +inducer)” value ([2]; Table 5 lane 4: traA1(3X), cl.35 +HA-VP16-TraR, 12.5 μM C8-AHL) was 1896.4 and 1959.7 and 1968.4. For the same compound, the “4, 5, 6 (replicate GUS activities, +inducer)” value ([2]; Table 5 lane 6: traA2(3X), cl.43 +HA-VP16-TraR, 12.5 μM C8-AHL) was 2198.3 and 2341.9 and 2304.6, the “4, 5, 6 (replicate GUS activities, +inducer)” value ([2]; Table 5 lane 8: traA3(3X), cl.4 +HA-VP16-TraR, 12.5 μM C8-AHL) was 117.3 and 111.1 and the “4, 5, 6 (replicate GUS activities, +inducer)” value ([2]; Table 5 lane 10: traA4(3X), cl.23 +HA-VP16-TraR, 12.5 μM C8-AHL) was 142.9 and 112.2 and 113.5. For the same compound, the “4, 5, 6 (replicate GUS activities, +inducer)” value ([2]; Table 5 lane 12: traA5(3X), cl.2 +HA-VP16-TraR, 12.5 μM C8-AHL) was 21.3 and 18.5 and 21.8, the “4, 5, 6 (replicate GUS activities, +inducer)” value ([2]; Table 5 lane 14: traA6(3X), cl.21 +HA-VP16-TraR, 12.5 μM C8-AHL) was 64.8 and 64.7 and the “4, 5, 6 (replicate GUS activities, +inducer)” value ([2]; Table 5 lane 16: traA7(3X), cl.15 +HA-VP16-TraR, 12.5 μM C8-AHL) was 237.5 and 226.8 and 240.1. The “4, 5, 6 (replicate GUS activities, +inducer)” value ([2]; Table 5 lane 18: traA8(3X), cl.4 +HA-VP16-TraR, 12.5 μM C8-AHL) was 828.8 and 874.3 and 960.9, the “4, 5, 6 (replicate GUS activities, +inducer)” value ([2]; Table 5 lane 20: traA9(3X), cl.8 +HA-VP16-TraR, 12.5 μM C8-AHL) was 65.4 and 65.3 and 60.5 and the “4, 5, 6 (replicate GUS activities, +inducer)” value ([2]; Table 6 lane 2: Tra box(3X), cl.5 +HA-VP16-TraR, 12.5 μM C8-AHL) was 1350.6 and 1542.2 and 1835.6. The “4, 5, 6 (replicate GUS activities, +inducer)” value ([2]; Table 6 lane 4: TraA1(3X), cl.35 +HA-VP16-TraR, 12.5 μM C8-AHL) was 1426.4 and 1490.9 and 1763.9, the “4, 5, 6 (replicate GUS activities, +inducer)” value ([2]; Table 6 lane 6: TraA2(3X), cl.43 +HA-VP16-TraR, 12.5 μM C8-AHL) was 1757.9 and 2255.2 and 2158.0 and the “4, 5, 6 (replicate GUS activities, +inducer)” value ([2]; Table 6 lane 8: TraA3(3X), cl.4 +HA-VP16-TraR, 12.5 μM C8-AHL) was 106.3 and 96.1. For the same compound, the “4, 5, 6 (replicate GUS activities, +inducer)” value ([2]; Table 6 lane 10: TraA4(3X), cl.23 +HA-VP16-TraR, 12.5 μM C8-AHL) was 108.1 and 108.3 and 112.6, the “4, 5, 6 (replicate GUS activities, +inducer)” value ([2]; Table 6 lane 12: TraA5(3X), cl.2 +HA-VP16-TraR, 12.5 μM C8-AHL) was 91.6 and 72.7 and 82.6 and the “4, 5, 6 (replicate GUS activities, +inducer)” value ([2]; Table 6 lane 14: TraA6(3X), cl.21 +HA-VP16-TraR, 12.5 μM C8-AHL) was 1.4 and 1.9 and 6.3. For the same compound, the “4, 5, 6 (replicate GUS activities, +inducer)” value ([2]; Table 6 lane 16: TraA7(3X), cl.15 +HA-VP16-TraR, 12.5 μM C8-AHL) was 216.9 and 217.5 and 275.9, the “4, 5, 6 (replicate GUS activities, +inducer)” value ([2]; Table 6 lane 18: TraA8(3X), cl.4 +HA-VP16-TraR, 12.5 μM C8-AHL) was 1774.0 and 1839.9 and 1663.3 and the “4, 5, 6 (replicate GUS activities, +inducer)” value [2, 16] was 307.2 and 197.9 and 183.9. For the same compound, the “+inducer (average GUS activity)” value [2, 16] was 229.7, the “4, 5, 6 (replicate GUS activities, +inducer)” value ([2]; Table 6 lane 22: TraA10(3X), cl.17 +HA-VP16-TraR, 12.5 μM C8-AHL) was 621.1 and 629.5 and 672.7 and the “4, 5, 6 (replicate GUS activities, +inducer)” value ([2]; Table 6 lane 24: TraA-1(3X), cl.14 +HA-VP16-TraR, 12.5 μM C8-AHL) was 25.0 and 30.0. For the same compound, the “4, 5, 6 (replicate GUS activities, +inducer)” value ([2]; Table 7 lane 3: TraA8(4X), cl.16 +HA-VP16-TraR, 12.5 μM C8-AHL) was 1190.9 and 991.1 and 863.8, the “4, 5, 6 (replicate GUS activities, +inducer)” value ([2]; Table 7 lane 5: TraA8(3X), cl.4(60 μg) +TraR, 12.5 μM C8-AHL) was 1867.2 and 1559.0 and 1569.7 and the “4, 5, 6 (replicate GUS activities, +inducer)” value ([2]; Table 7 lane 8: TraA8(3X), cl.4(25 μg) + TraR + TraM, 12.5 μM C8-AHL) was 13.5 and 9.6 and 12.1. For the same compound, the “4, 5, 6 (replicate GUS activities, +inducer)” value ([2]; Table 7 lane 9: TraA8(3X), cl.4 (25 μg) + TraR + TraS, 12.5 μM C8-AHL) was 279.4 and 224.4 and 241.0, the “4, 5, 6 (replicate GUS activities, +inducer)” value ([2]; Table 7 lane 10: TraA8(3X), cl.4 (25 μg) + TraR + CAT, 12.5 μM C8-AHL) was 698.2 and 680.1 and 908.4 and the “4, 5, 6 (replicate GUS activities, +inducer)” value ([2]; Table 8 lane 3: TraA8(4X) +TraR, 25 μM (row 0/25 μM)) was 7034.5 and 8005.8 and 7531.5. For the same compound, the “1, 2, 3 (replicate GUS activities at the lower concentration)” value ([3]; 5 μM) was 2820.7 and 3124.7 and 3110.7, the “4, 5, 6 (replicate GUS activities at the higher concentration)” value ([3]; 12.5 μM) was 4386.9 and 4031.2 and 4010.3 and the “1, 2, 3 (replicate GUS activities at the lower concentration)” value ([3]; 25 μM) was 8183.1 and 7890.1 and 6855.5. For the same compound, the “4, 5, 6 (replicate GUS activities at the higher concentration)” value ([3]; 75 μM) was 8036.8 and 7647.1 and 8243.2.
